Test system: immortalized human sebocytes derived from the SZ95 line
Assay: Lipid production by immortalized human sebocytes in culture (Nile Red fluorescence)
Assay type: cell-based
Settings: treatment for two days; for VARIATION IN LIPIDS (compared to control): total lipids (neutral + non-neutral), Nile Red, 0.1% DMSO
Protocol: Hecogenin and diosgenin, provided by SIGMA, were tested on a model of immortalized human sebocytes in culture, derived from the SZ95 line described in C. C. Zouboulis, H. Seltmann, H. Neitzel & C. E. Orfanos, Establishment and Characterization of an Immortalized Human Sebaceous Gland Cell Line, J. Invest. Dermatol., 113, 1011-1020 (1999).
The test consisted in measuring the amount of lipids produced by the sebocytes of the line (at confluency), in the presence or absence of active agents, diluted in DMSO such that the final amount of DMSO in the culture medium is 0.1%. After treatment for two days, the adherent cells are treated with Nile Red (1 μg/ml). The lipid content is then quantified by measuring the fluorescence of the dye (two excitation/emission couples: 485-540 nm for the neutral lipids and 540-620 nm for the non-neutral lipids). The results are given for the total lipids (combination of the two measurements).
The experiment was carried out in triplicate (assay products and control) in a 96-well plate and repeated three times.

## C[C@@H]1CC[C@@]2(OC1)O[C@H]1C[C@H]3[C@@H]4CC=C5C[C@@H](O)CC[C@]5(C)[C@H]4CC[C@]3(C)[C@H]1[C@@H]2C [Diosgenin]
0.1 μM
  VARIATION IN LIPIDS (compared to control): +4%

## C[C@@H]1CC[C@@]2(OC1)O[C@H]1C[C@H]3[C@@H]4CC[C@@]5(C)C[C@@H](O)CC[C@]5(C)[C@H]4CC(=O)[C@]3(C)[C@H]1[C@@H]2C [Hecogenin]
0.1 μM
  VARIATION IN LIPIDS (compared to control): +5%

## C[C@]12CC[C@H](O)CC1=CC[C@@H]1[C@@H]2CC[C@]2(C)C(=O)CC[C@@H]12 [DHEA]
0.1 μM, same test, total lipids
  activity on lipid content (lipogenesis): inactive
10 μM, same test, total lipids
  increase in the lipid content of the sebum: 13%
